PubChem BioAssay AID248 (DTP/NCI, 2004)
“And” between values parts separate entries of the source, which are not always exact repeats. Equal values may be shown once. Inconclusive results and toxic doses are left out. Rule as the data show it: active = T/C of 150% or more; inactive = T/C below 125%.

Tested on: L1210 leukemia ip in BDF1 mice, survival T/C
Experiment: NCI In Vivo Anticancer Drug Screen. Data for tumor model L1210 Leukemia (intraperitoneal) in B6D2F1 (BDF1) mice
Conditions: endpoint: mean survival time, higher = longer survival
In short: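 Tumor was transplanted into mice, which were then dosed with test compound or vehicle alone. Survival was recorded for each group, and the treated figure was expressed relative to the control figure.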

[1] = dose: 100.0 mg/kg/injection, schedule: Q01DX009 (ip), vehicle: saline with Tween-80

Measured: T/C

COc1ccc(Cl)c(NC(=O)Nc2cc(Cl)ccc2C)c1
inactive: [1] 94 % of control and 95 % of control | dose: 100.0 mg/kg/injection, schedule: Q04DX002 (ip), vehicle: saline with Tween-80 98 % of control and 91 % of control | dose: 200.0 mg/kg/injection, schedule: Q01DX009 (ip), vehicle: saline with Tween-80 90 % of control | dose: 200.0 mg/kg/injection, schedule: Q04DX002 (ip), vehicle: saline with Tween-80 95 % of control and 91 % of control | dose: 400.0 mg/kg/injection, schedule: Q01DX009 (ip), vehicle: saline with Tween-80 93 % of control | dose: 400.0 mg/kg/injection, schedule: Q04DX002 (ip), vehicle: saline with Tween-80 87 % of control and 90 % of control

CCSC1C(OC(C)=O)C(C(CI)OC(C)=O)OC1n1cc(C)c(=O)[nH]c1=O (configuration not stated)
inactive: dose: 100.0 mg/kg/injection, schedule: Q01DX005 (ip), vehicle: saline 93 % of control | dose: 200.0 mg/kg/injection, schedule: Q01DX005 (ip), vehicle: saline 98 % of control

CCOC(=O)c1ccc(NCc2cccc([N+](=O)[O-])c2)cc1
inactive: dose: 100.0 mg/kg/injection, schedule: Q01DX001 (ip), vehicle: saline with Tween-80 103 % of control | dose: 200.0 mg/kg/injection, schedule: Q01DX001 (ip), vehicle: saline with Tween-80 90 % of control | dose: 400.0 mg/kg/injection, schedule: Q01DX001 (ip), vehicle: saline with Tween-80 88 % of control

O=S(O)OS(=O)O
inactive: dose: 100.0 mg/kg/injection, schedule: Q01DX009 (ip), vehicle: saline 93 % of control | dose: 100.0 mg/kg/injection, schedule: Q04DX003 (ip), vehicle: saline 100 % of control | dose: 200.0 mg/kg/injection, schedule: Q01DX009 (ip), vehicle: saline 90 % of control | dose: 200.0 mg/kg/injection, schedule: Q04DX003 (ip), vehicle: saline 104 % of control | dose: 400.0 mg/kg/injection, schedule: Q01DX009 (ip), vehicle: saline 86 % of control | dose: 400.0 mg/kg/injection, schedule: Q04DX003 (ip), vehicle: saline 102 % of control

CC[C@@]1(O)C[C@H](OC2CC(N(C)C)C(OC3CC(O)C(OC4CCC(=O)C(C)O4)C(C)O3)C(C)O2)c2c(cc3c(c2O)C(=O)c2c(O)ccc(O)c2C3=O)[C@H]1C(=O)OC (some centres not stated)
inactive: dose: 0.5 mg/kg/injection, schedule: Q01DX003 (ip), vehicle: saline 111 % of control | dose: 0.59 mg/kg/injection, schedule: Q01DX001 (ip), vehicle: saline 107 % of control | dose: 0.59 mg/kg/injection, schedule: Q01DX009 (ip), vehicle: saline 111 % of control | dose: 0.59 mg/kg/injection, schedule: Q04DX003 (ip), vehicle: saline 109 % of control | dose: 0.65 mg/kg/injection, schedule: Q01DX009 (ip), vehicle: water 122 % of control | dose: 0.75 mg/kg/injection, schedule: Q01DX009 (ip), vehicle: saline 121 % of control | dose: 0.89 mg/kg/injection, schedule: Q01DX001 (ip), vehicle: saline 107 % of control | dose: 0.89 mg/kg/injection, schedule: Q01DX009 (ip), vehicle: saline 113 % of control | dose: 0.89 mg/kg/injection, schedule: Q04DX003 (ip), vehicle: saline 105 % of control | dose: 1.0 mg/kg/injection, schedule: Q01DX003 (ip), vehicle: saline 113 % of control | dose: 1.0 mg/kg/injection, schedule: Q01DX009 (ip), vehicle: saline 119 % of control | dose: 1.04 mg/kg/injection, schedule: Q04DX003 (ip), vehicle: water 112 % of control | dose: 1.33 mg/kg/injection, schedule: Q01DX001 (ip), vehicle: saline 102 % of control | dose: 1.33 mg/kg/injection, schedule: Q01DX009 (ip), vehicle: saline 120 % of control | dose: 1.33 mg/kg/injection, schedule: Q04DX003 (ip), vehicle: saline 111 % of control | dose: 1.73 mg/kg/injection, schedule: Q04DX003 (ip), vehicle: water 112 % of control | dose: 2.0 mg/kg/injection, schedule: Q01DX001 (ip), vehicle: saline 109 % of control | dose: 2.0 mg/kg/injection, schedule: Q04DX003 (ip), vehicle: saline 107 % of control | dose: 2.59 mg/kg/injection, schedule: Q01DX001 (ip), vehicle: water 112 % of control | dose: 3.0 mg/kg/injection, schedule: Q01DX001 (ip), vehicle: saline 117 % of control | dose: 3.0 mg/kg/injection, schedule: Q01DX009 (ip), vehicle: saline 103 % of control | dose: 3.0 mg/kg/injection, schedule: Q01DX009 (ip), vehicle: water 96 % of control | dose: 12.0 mg/kg/injection, schedule: Q01DX001 (ip), vehicle: water 113 % of control | dose: 20.0 mg/kg/injection, schedule: Q01DX001 (ip), vehicle: water 98 % of control

N=C(N)SCc1ccc(Cl)cc1Cl
inactive: dose: 25.0 mg/kg/injection, schedule: Q01DX009 (ip), vehicle: saline with Tween-80 100 % of control | dose: 50.0 mg/kg/injection, schedule: Q01DX009 (ip), vehicle: saline with Tween-80 96 % of control | [1] 98 % of control | dose: 100.0 mg/kg/injection, schedule: Q04DX002 (ip), vehicle: Klucel (hydroxypropylcellulose) (HPC) 96 % of control | dose: 200.0 mg/kg/injection, schedule: Q04DX002 (ip), vehicle: Klucel (hydroxypropylcellulose) (HPC) 89 % of control | dose: 400.0 mg/kg/injection, schedule: Q04DX002 (ip), vehicle: Klucel (hydroxypropylcellulose) (HPC) 96 % of control
